Data from paper PMC8460821, “Bio-oriented synthesis of new sulphadiazine derivatives for urease inhibition and their pharmacokinetic analysis” (Scientific Reports, 2021).
Like-named read-outs stand apart in the source and are kept apart here.

How the values were obtained:
Jack bean urease = Jack bean urease (Canavalia ensiformis, UniProt P07374); experiment: biochemical
Experimental: All the synthesized derivatives were subjected to anti-urease activity. In preliminary screening, all compounds were evaluated at 1 mM concentrations, and percentage inhibition was used as an indicator of activity. IC50 values were calculated for the scaffolds having percentage inhibition higher than 50%.
Indophenol method was used to perform the urease inhibition. 10 µL of enzyme, 40 µL buffer, 10 µL of assay moiety, 40-µL each of phenol-reagents, and alkali reagent were present in the assay mixture. Firstly, incubation of assay compounds and enzyme was done in assay buffer at 37 °C for 30 min. Then, alkaline reagents and 40 µL of phenol were mixed to quench the mixture. 96 well plates were used in enzyme assay and for reading of absorbance at 625 nm a microplate reader was helpful. The experiment was done in triplicate and PRISM 4.0 was used to get IC50, positive control was thiourea.

Jack bean urease, sequence (P07374 whole entry, looked up): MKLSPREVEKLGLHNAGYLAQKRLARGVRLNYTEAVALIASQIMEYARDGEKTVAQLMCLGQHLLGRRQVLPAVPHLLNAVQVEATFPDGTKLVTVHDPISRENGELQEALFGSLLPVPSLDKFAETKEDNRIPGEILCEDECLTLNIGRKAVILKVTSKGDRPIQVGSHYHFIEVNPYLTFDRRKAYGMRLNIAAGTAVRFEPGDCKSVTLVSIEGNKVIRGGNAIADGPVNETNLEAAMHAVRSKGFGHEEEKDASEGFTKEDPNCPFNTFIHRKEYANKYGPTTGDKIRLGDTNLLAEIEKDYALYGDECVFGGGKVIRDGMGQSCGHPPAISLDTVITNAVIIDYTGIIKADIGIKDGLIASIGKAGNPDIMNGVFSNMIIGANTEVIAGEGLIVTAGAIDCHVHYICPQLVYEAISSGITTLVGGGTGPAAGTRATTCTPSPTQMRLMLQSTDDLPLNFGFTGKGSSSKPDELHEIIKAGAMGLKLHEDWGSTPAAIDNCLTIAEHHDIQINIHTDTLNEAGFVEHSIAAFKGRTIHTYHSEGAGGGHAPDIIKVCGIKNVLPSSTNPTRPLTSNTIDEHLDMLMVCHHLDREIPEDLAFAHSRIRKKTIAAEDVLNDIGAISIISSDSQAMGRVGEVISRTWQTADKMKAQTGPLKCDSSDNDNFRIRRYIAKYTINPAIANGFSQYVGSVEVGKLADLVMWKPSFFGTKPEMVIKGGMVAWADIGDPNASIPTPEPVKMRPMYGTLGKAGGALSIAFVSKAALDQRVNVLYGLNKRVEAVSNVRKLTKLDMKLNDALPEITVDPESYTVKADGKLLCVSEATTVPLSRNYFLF

Row | SMILES | melting point [°C] | IC50 (Jack bean urease) [µM] | IC50 urease inhibition (Jack bean urease; incubation 37 °C 30 min, absorbance 625 nm, triplicate, positive control thiourea) | Potency relative to standard thiourea (Jack bean urease; ratio of urease IC50 values) [times] | IC50 (Jack bean urease; incubation 37 °C 30 min, absorbance 625 nm, triplicate, positive control thiourea, read-out: IC50 urease inhibition) [µM]
1 | O=S(=O)(Nc1ncccn1)c1ccc(N=Cc2ccccc2)cc1 [3a, 4-(Benzylideneamino)-N-(pyrimidin-2-yl)benzenesulfonamide] | 269 to 271 | 2.32 ± 0.54 | – | – | –
2 | O=S(=O)(Nc1ncccn1)c1ccc(N=Cc2ccccc2O)cc1 [3b, 4-(2-Hydroxybenzylideneamino)-N-(pyrimidin-2-yl)benzenesulfonamide] | – | 3.29 ± 2 | – | – | –
3 | O=S(=O)(Nc1ncccn1)c1ccc(N=Cc2cc(Br)ccc2O)cc1 [3c, 4-(5-Bromo-2-hydroxybenzylideneamino)-N-(pyrimidin-2-yl)benzenesulfonamide] | – | – | inactivation of the compound | – | –
4 | COc1ccc(C=Nc2ccc(S(=O)(=O)Nc3ncccn3)cc2)c(O)c1 [3d, 4-(2-Hydroxy-4-methoxybenzylideneamino)-N-(pyrimidin-2-yl)benzenesulfonamide] | 266 to 267 | – | – | – | –
5 | O=[N+]([O-])c1ccc(C=Nc2ccc(S(=O)(=O)Nc3ncccn3)cc2)cc1 [3e, 4-(4-Nitrobenzylideneamino)-N-(pyrimidin-2-yl)benzenesulfonamide] | 274 to 276 | 4.15 ± 0.77 | – | – | –
6 | CN(C)c1ccc(C=Nc2ccc(S(=O)(=O)Nc3ncccn3)cc2)cc1 [3f, 4-(4-(Dimethylamino)benzylideneamino)-N-(pyrimidin-2-yl)benzenesulfonamide] | 275 to 277 | 13.14 ± 0.02 | – | – | –
7 | O=S(=O)(Nc1ncccn1)c1ccc(N=Cc2ccc(F)cc2)cc1 [3g, 4-(4-Fluorobenzylideneamino)-N-(pyrimidin-2-yl)benzenesulfonamide] | 283 to 285 | 10.1 ± 0.45 | – | – | –
8 | COc1ccc(C=Nc2ccc(S(=O)(=O)Nc3ncccn3)cc2)cc1 [3h, 4-(4-Methoxybenzylideneamino)-N-(pyrimidin-2-yl)benzenesulfonamide] | 287 to 289 | 45.6 ± 0.56 | – | – | –
9 | O=S(=O)(Nc1ncccn1)c1ccc(N=Cc2ccc(Cl)cc2O)cc1 [3i, 4-(4-Chloro-2-hydroxybenzylideneamino)-N-(pyrimidin-2-yl)benzenesulfonamide] | 285 to 287 | 25.56 ± 0.22 | – | – | –
10 | O=S(=O)(Nc1ncccn1)c1ccc(N=Cc2ccc(F)cc2O)cc1 [3j, 4-(4-Fluoro-2-hydroxybenzylideneamino)-N-(pyrimidin-2-yl)benzenesulfonamide] | 279 to 281 | 19 ± 1.23 | – | – | –
11 | O=S(=O)(Nc1ncccn1)c1ccc(N=Cc2ccc(O)cc2O)cc1 [3k, 4-(2,4-Dihydroxybenzylideneamino)-N-(pyrimidin-2-yl)benzenesulfonamide] | 280 to 282 | 12.1 ± 2.43 | – | – | –
12 | O=S(=O)(Nc1ncccn1)c1ccc(N=Cc2ccc(F)cc2Br)cc1 [3l, 4-(2-Bromo-4-fluorobenzylideneamino)-N-(pyrimidin-2-yl)benzenesulfonamide] | 285 to 287 | 2.21 ± 0.45 | – | 10 | –
13 | O=S(=O)(Nc1ncccn1)c1ccc(N=Cc2ccc(F)cc2Cl)cc1 [3m, 4-(2-Chloro-4-fluorobenzylideneamino)-N-(pyrimidin-2-yl)benzenesulfonamide] | 277 to 279 | 15.7 ± 2.45 | – | – | –
14 | O=S(=O)(Nc1ncccn1)c1ccc(N=Cc2ccc(Br)cc2F)cc1 [3n, 4-(4-Bromo-2-fluorobenzylideneamino)-N-(pyrimidin-2-yl)benzenesulfonamide] | 291 to 293 | 18.2 ± 1.78 | – | – | –
15 | O=S(=O)(Nc1ncccn1)c1ccc(N=Cc2ccc(Cl)cc2Br)cc1 [3o, 4-(2-Bromo-4-chlorobenzylideneamino)-N-(pyrimidin-2-yl)benzenesulfonamide] | 277 to 279 | 5.04 ± 0.4 | – | – | –
16 | O=S(=O)(Nc1ncccn1)c1ccc(N=Cc2ccc(Cl)cc2F)cc1 [3p, 4-(4-Chloro-2-fluorobenzylideneamino)-N-(pyrimidin-2-yl)benzenesulfonamide] | 275 to 277 | 17.07 ± 0.02 | – | – | –
17 | O=S(=O)(Nc1ncccn1)c1ccc(N=Cc2ccc(Cl)cc2Cl)cc1 [3q, 4-(2,4-Dichlorobenzylideneamino)-N-(pyrimidin-2-yl)benzenesulfonamide] | 291 to 293 | 4.05 ± 1.1 | – | – | –
18 | O=S(=O)(Nc1ncccn1)c1ccc(N=Cc2ccc(F)cc2F)cc1 [3r, 4-(2,4-Difluorobenzylideneamino)-N-(pyrimidin-2-yl)benzenesulfonamide] | 279 to 281 | 13.1 ± 2.55 | – | – | –
19 | O=S(=O)(Nc1ncccn1)c1ccc(N=Cc2ccc(Br)cc2Br)cc1 [3s, 4-(2,4-Dibromobenzylideneamino)-N-(pyrimidin-2-yl)benzenesulfonamide] | 273 to 275 | 6.09 ± 0.45 | – | – | –
20 | O=S(=O)(Nc1ncccn1)c1ccc(N=Cc2ccc(O)cc2)cc1 [3t, 4-(4-Hydroxybenzylideneamino)-N-(pyrimidin-2-yl)benzenesulfonamide] | 271 to 273 | 8.9 ± 2.45 | – | – | –
21 | Cc1ccc(C=Nc2ccc(S(=O)(=O)Nc3ncccn3)cc2)c(O)c1 [3u, 4-(2-Hydroxy-4-methylbenzylideneamino)-N-(pyrimidin-2-yl)benzenesulfonamide] | 279 to 281 | – | – | – | –
22 | NC(N)=S [thiourea, reference compound] | – | – | – | – | 20 ± 2.06
